Results reported in ChEMBL document CHEMBL4118090, “Dihydrothieno-pyridin-one and Tetrahydrothieno-azepinone Inhibitors of Enhancer of Zeste Homologue 2” (ACS Med Chem Lett, 2017).

biological target: Histone-lysine N-methyltransferase EZH2 (Homo sapiens, UniProt Q15910); assay: Inhibition of methyltransferase activity of flag-tagged EZH2 in human PRC2 complex expressed in Sf9 insect cells using biotinylated histone H3K27 peptide as substrate after 60 mins in presence of 3H-SAM by scintillation proximity assay
Sequence (Q15910 whole entry): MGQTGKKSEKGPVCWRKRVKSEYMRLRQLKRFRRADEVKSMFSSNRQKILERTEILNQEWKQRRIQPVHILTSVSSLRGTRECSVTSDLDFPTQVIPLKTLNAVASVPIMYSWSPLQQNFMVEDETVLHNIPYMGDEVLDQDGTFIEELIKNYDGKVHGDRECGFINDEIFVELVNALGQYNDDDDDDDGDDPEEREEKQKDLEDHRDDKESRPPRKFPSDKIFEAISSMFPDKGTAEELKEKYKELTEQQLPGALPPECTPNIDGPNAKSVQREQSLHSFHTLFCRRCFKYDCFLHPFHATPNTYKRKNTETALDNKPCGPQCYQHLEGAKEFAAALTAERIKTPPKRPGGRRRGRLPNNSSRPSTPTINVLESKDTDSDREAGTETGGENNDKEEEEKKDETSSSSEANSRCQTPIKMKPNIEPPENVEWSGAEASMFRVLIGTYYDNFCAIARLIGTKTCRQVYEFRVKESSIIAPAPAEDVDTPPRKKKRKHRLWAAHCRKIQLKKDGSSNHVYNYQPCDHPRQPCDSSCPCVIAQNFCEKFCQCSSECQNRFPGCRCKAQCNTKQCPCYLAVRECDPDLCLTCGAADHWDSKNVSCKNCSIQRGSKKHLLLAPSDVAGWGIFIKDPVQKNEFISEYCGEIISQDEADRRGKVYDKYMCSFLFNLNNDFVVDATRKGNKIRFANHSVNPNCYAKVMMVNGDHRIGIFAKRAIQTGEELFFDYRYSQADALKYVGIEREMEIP

Row | Compound | IC50 [µM]
1 | Cc1cc(C)c(CN2CCCc3sc([C@H](C)C4CCN(CC5CCCCC5)CC4)c(C)c3C2)c(=O)[nH]1 | ≤ 0.01
2 | CC[C@@H](c1sc2c(c1C)CN(C(=O)c1c(C)cc(C)[nH]c1=O)CC2)C1CCN(Cc2ccccn2)CC1 | ≤ 0.01
3 | CC[C@@H](c1scc(C(=O)NCc2c(C)cc(C)[nH]c2=O)c1C)C1CCN(Cc2ccc(Cl)cn2)CC1 | ≤ 0.01
4 | Cc1cc(C)c(CN2CCCc3sc([C@H](C)C4CCN(Cc5ccccn5)CC4)c(C)c3C2)c(=O)[nH]1 | ≤ 0.01
5 | CC[C@@H](c1sc2c(c1C)C(=O)N(Cc1c(C)cc(C)[nH]c1=O)CC2)C1CCN(Cc2ccccc2)CC1 | ≤ 0.01
6 | CC[C@@H](c1sc2c(c1C)CN(Cc1c(C)cc(C)[nH]c1=O)CC2)C1CCN(Cc2ccnc(OC)c2)CC1 | ≤ 0.01
